Measured values taken from PMC6149849, “Cymantrenyl-Nucleobases: Synthesis, Anticancer, Antitrypanosomal and Antimicrobial Activity Studies” (Molecules : A Journal of Synthetic Chemistry and Natural …, 2017).
Where two headings read alike, the source gives them in different places.

Columns and labels:
[1] = tested on: SKOV-3 (ovarian adenocarcinoma); test: MTT cytotoxicity assay, SKOV-3; assay type: cell-based, human
Description: Anticancer activity of cymantrenes was determined using a panel of human cancer cell lines that were derived from solid tumors. […] The inhibitory effect of cymantrene derivatives on cell proliferation and growth was determined based on survival curves and was expressed as IC50 values (concentration required to achieve a 50% decrease in cell viability when compared to the viability of untreated control cells) calculated using GraphPad Prism 4.02 software for Windows (GraphPad Software, San Diego, CA, USA). Cell viability was determined by the MTT microplate spectrophotometric cytotoxicity test.
The cytotoxicity of cymantrene derivatives was evaluated by the MTT microplate methods as described elsewhere [67] by incubating the cells with increasing concentrations of tested compounds for 24 h. Briefly, 0.1 mL of logarithmically growing cells were seeded in a 96-well microplate (5 × 10^4 cells/well) a day before the experiments and after 24 h of culture, tested compounds, dissolved in DMSO, and diluted in culture medium, were added. […] After further incubation for 24 h, the medium was replaced with fresh medium and the cells were allowed to grow for additional 48 h. Then, the medium was aspirated and 0.05 mL of MTT (final concentration of 5 mg/mL medium) added to each well, and the cells were incubated for further 4 h. The absorbance of the product, resulting from the MTT reduction, was read with a microplate reader at 545 nm. The percentage of viable cells was calculated by comparing the absorbance of treated cells with that of the untreated control cells (taken as 100%). The IC50 concentration of each compound was calculated from the cell survival curves using GraphPad Prism 4.02 software for Windows (GraphPad Software, San Diego, CA, USA).

[2] = tested on: A549 (non-small cell lung carcinoma); test: MTT cytotoxicity assay, A549
Description: Anticancer activity of cymantrenes was determined using a panel of human cancer cell lines that were derived from solid tumors. These included cell lines of estrogen-responsive, doxorubicin resistant, and triple negative breast adenocarcinomas (MCF-7, MCF-7/DX, and MDA-MB-231), ovarian adenocarcinoma (SKOV-3), non-small cell lung carcinoma (A549), hepatocellular carcinoma (HepG2), and glioblastoma (U-87 MG). The inhibitory effect of cymantrene derivatives on cell proliferation and growth was determined based on survival curves and was expressed as IC50 values (concentration required to achieve a 50% decrease in cell viability when compared to the viability of untreated control cells) calculated using GraphPad Prism 4.02 software for Windows (GraphPad Software, San Diego, CA, USA). Cell viability was determined by the MTT microplate spectrophotometric cytotoxicity test.
Anticancer activity of cymantrene derivetives were determined on the basis of their cytotoxic effects on a panel of human cancer cells, as derived from different types of solid tumors: estrogen responsive breast adenocarcinoma (MCF-7), triple negative breast adenocarcinoma (MDA-MB-231), ovarian adenocarcinoma (SKOV-3), non-small cell lung carcinoma (A549), hepatocellular carcinoma (HepG2), and glioblastoma (U-87 MG). Additionally, doxorubicin resistant breast adenocarcinoma cells (MCF-7/Dox) were also included for comparison. All of the cell lines were purchased from American Type Culture Collection (ATCC, Rockville, MD, USA), except the MCF-7/dox cell line, which was a generous gift from Professor Malgorzata Latocha from the Department of Cell Biology, Medical University of Silesia in Katowice, Poland.
Cells were grown as a monolayer in DMEM growth medium, supplemented with 10% FBS, penicillin (10 U/mL) and streptomycin (50 μg/mL), under standard conditions (37 °C, 5% CO2 and 95% air, 100% humidity) and periodically checked for Mycoplasma contamination.
The cytotoxicity of cymantrene derivatives was evaluated by the MTT microplate methods as described elsewhere by incubating the cells with increasing concentrations of tested compounds for 24 h. Briefly, 0.1 mL of logarithmically growing cells were seeded in a 96-well microplate (5 × 10^4 cells/well) a day before the experiments and after 24 h of culture, tested compounds, dissolved in DMSO, and diluted in culture medium, were added. […] After further incubation for 24 h, the medium was replaced with fresh medium and the cells were allowed to grow for additional 48 h. Then, the medium was aspirated and 0.05 mL of MTT (final concentration of […] medium) added to each well, and the cells were incubated for further 4 h. The absorbance of the product, resulting from the MTT reduction, was read with a microplate reader at 545 nm. The percentage of viable cells was calculated by comparing the absorbance of treated cells with that of the untreated control cells (taken as 100%). The IC50 concentration of each compound was calculated from the cell survival curves using GraphPad Prism 4.02 software for Windows (GraphPad Software, San Diego, CA, USA).

SKOV-3 cells = test: Autophagy (acidic vesicular organelles, AVOs), acridine orange staining; assay type: cell-based, human; conditions: SKOV-3, IC50 concentrations 24 h, then 0, 24 or 48 h drug-free
Description: To determine the mode of cell death that was triggered by cymantrene derivatives, appropriately stained SKOV-3 cells were evaluated for morphological changes using fluorescence microscopy. For evaluation of apoptosis and autophagy, cells were stained with Hoechst 33258/propidium iodide to distinguish between live, apoptotic and necrotic cells and reveal condensed chromatin and apoptotic bodies (a hallmark of apoptosis), and with acridine orange to detect the development of acidic vesicular organelles (AVOs—a hallmark of autophagy).
One day prior to the experiments, cells were seeded at the appropriate density into 35 mm diameter dishes. […] At the end of incubation, the medium was aspirated, the cell monolayer was washed twice with pre-warmed PBS, and fresh medium was added. The cells were cultured in drug-free medium for an additional 24 or 48 h to enable them to recover after the exposure to the compounds and to repair any induced damages.
The ability of tested compounds to induce autophagosome formation inside cells (the process associated with the induction of autophagy) was evaluated by microscopic examination of the morphology of cells stained with acridine orange (AO).

[3] = tested on: bloodstream forms of T. brucei clone 427-221a; test: Trypanocidal assay, resazurin viability assay; assay type: cell-based, Trypanosoma brucei; conditions: for GI50: 50% growth inhibition; for MIC: concentration at which all cells were killed, determined microscopically; for Selectivity GI50 Ratio / Selectivity MIC Ratio: ratio of cytotoxic (HL-60) to trypanocidal (T. brucei) activity; for MIC and GI50 ratios of cytotoxic to trypanocidal activities: HL-60 / T. brucei
Description: All of the cultures were maintained at 37 °C in a humidified atmosphere containing 5% of CO2. Toxicity assays were performed, as previously described, with some modifications. In brief, trypanosomes and HL-60 cells were seeded at an initial cell density of 10^4/mL and 5 × 10^4/mL, respectively, in 96-well plates in a final volume of 200 μL culture medium containing various concentrations of test compounds dissolved in 100% DMSO. […] The controls contained DMSO alone. In all of the experiments, the final DMSO concentration was 0.9%. After 24 h incubation, 20 µL of a 0.5 mM resazurin solution prepared in PBS was added and the cultures were incubated for a further 48 h. Resazurin is a vital dye that, when being reduced by living cells, changes its colour from blue to pink. Thus, by measuring absorbance, the proliferation of cells can be easily determined. The change in absorbance was read with a microplate reader using a test wavelength of 570 nm and a reference wavelength of 630 nm. GI50 values were calculated by linear interpolation according to the method described by Huber and Koella. MIC values were determined microscopically.

[4] = 24 h incubation, MTT, means ± SEM, read-out: cytotoxicity IC50, SKOV-3
[5] = read-out: cytotoxicity IC50, A549, 24 h incubation, MTT, means ± SEM

Row | Structure (SMILES) | IC50 [1, 4] | IC50 [2, 5] | induction of autophagy (cells containing AVOs) (SKOV-3 cells) | GI50 [3] | MIC [3] | Selectivity GI50 Ratio [3] | Selectivity MIC Ratio [3] | IC50 [1] | IC50 [2] | MIC and GI50 ratios of cytotoxic to trypanocidal activities [3]
1 | O=[C]=[Mn](=[C]=O)(=[C]=O)[CH]1C=CC=C1 [CymH, tricarbonyl(η^5-cyclopentadienyl)manganese, reference compound] | 121 ± 3.05 µM | 87 ± 1.35 µM | greatest autophagic changes | 44.6 ± 12.3 µM | 100 µM | >2.2 | >1 | – | – | –
2 | COC(CCn1cc(F)c(=O)n(C)c1=O)[C]12[CH]3[CH]4[CH]5[CH]1[Mn]4532.[C-]#[O+].[C-]#[O+].[C-]#[O+] (racemic) [Compound 4] | – | – | Less induction of autophagy | 29.6 ± 6.8 µM | 100 µM | >3.4 | >1 | > 150 µM | > 150 µM | –
3 | O=c1[nH]c(=O)n(CCC(O)[C]23[CH]4[CH]5[CH]6[CH]2[Mn]5643[P](c2ccccc2)(c2ccccc2)c2ccccc2)cc1F.[C-]#[O+].[C-]#[O+] (racemic) [Compound 3] | 53 ± 2.65 µM | 20.4 ± 1.09 µM | very little autophagic activity | 4.27 ± 0.13 µM | 10 µM | 7.2 | 10 | – | – | 7–13
4 | CCC(=O)[C]12[CH]3[CH]4[CH]5[CH]1[Mn]4532.[C-]#[O+].[C-]#[O+].[C-]#[O+] (centres unmarked) [Compound 7, propionylocymantrene] | – | – | greatest autophagic changes | – | – | – | – | 69.8 ± 3.49 µM | 30.6 ± 1.35 µM | –
5 | Nc1ncnc2c1ncn2CCC(O)[C]12[CH]3[CH]4[CH]5[CH]1[Mn]4532[P](c1ccccc1)(c1ccccc1)c1ccccc1.[C-]#[O+].[C-]#[O+] (racemic) [Compound 5] | 63.8 ± 3.19 µM | 23.7 ± 0.86 µM | Less induction of autophagy | 3.14 ± 0.31 µM | 10 µM | 9.1 | 10 | – | – | 7–13
6 | COC(CCn1cnc2c(N(C)C)ncnc21)[C]12[CH]3[CH]4[CH]5[CH]1[Mn]4532.[C-]#[O+].[C-]#[O+].[C-]#[O+] (racemic) [Compound 6] | – | – | greatest autophagic changes | 26.1 ± 1.9 µM | 100 µM | 3.6 | >1 | 77.1 ± 3.86 µM | 102 ± 1.08 µM | –
7 | O=C(CCn1cc(F)c(=O)[nH]c1=O)[C]12[CH]3[CH]4[CH]5[CH]1[Mn]4532.[C-]#[O+].[C-]#[O+].[C-]#[O+] (centres unmarked) [Compound 1] | – | – | Less induction of autophagy | 3.02 ± 0.14 µM | 10 µM | 11.0 | 10 | 75.1 ± 3.76 µM | 25.1 ± 1.25 µM | 7–13
8 | Nc1ncnc2c1ncn2CCC(O)[C]12[CH]3[CH]4[CH]5[CH]1[Mn]45321[P](c2ccccc2)(c2ccccc2)CC[P]1(c1ccccc1)c1ccccc1.[C-]#[O+] (racemic) [Compound C] | – | – | greatest autophagic changes | – | – | – | – | – | 16.5 ± 0.82 µM | –
